Where two headings read alike, the source gives them in different places. Marks after values point to notes of the source that are not given here.
What was measured:
HNT-34 cells = test: Apoptosis (caspase 3/7 activation), HNT-34; format: cell-based, human; conditions: for EC50: Homo sapiens, read-out: Compound D-induced Apoptosis EC50
[1] = system: proteins in the UPR pathway, PARP; test: UPR pathway proteins and PARP cleavage, western blot, healthy PBMCs; format: cell-based, human; conditions: 10 nM Compound D
OCI-AML3 cells [2] = test: Apoptosis (caspase 3/7 activation), OCI-AML3; format: cell-based, human; conditions: OCI-AML3, 123 nM
KG-1 cells = test: Apoptosis (caspase 3/7 activation), KG-1; format: cell-based, human; conditions: for EC50: Homo sapiens, read-out: Compound D-induced Apoptosis EC50
OCI-AML3 cells [3] = test: Anti-proliferation CTG assay, OCI-AML3; format: cell-based, human
Method: (§1) A plethora of AML cell lines were treated with serial dilutions of Compound D. IC50 value of the anti-proliferation effect of Compound D (as determined in 72-hour CTG assays) in each cell line is summarized in Table 1.
The effect of depletion of GSPT1 on the anti-proliferative effect of compound Compound D and Compound E was also determined in human acute myelogenous leukemia cell lines AML and KG1. Cells were infected with lentiviral vectors expressing control shRNA, shGSPT1-1 or shGSPT1-3 for 7 days and then treated with DMSO, Compound D or Compound E in a titration from 0.0001 μM to 1 μM. Two days after treatment, cell proliferation was measured by CellTiter-Glo cell viability. […] Both shGSPT1-1 and shGSPT1-3 reduced the expression of GSPT1, eRF1, and slightly of CRBN.

NB-4 cells = test: Anti-proliferation 72-hour CTG assay, NB-4; format: cell-based; conditions: Homo sapiens; NB-4, 72-hour CTG assay; read-out: IC50 of the anti-proliferative effect
Method: as §1

ATF3 and DDIT3 mRNA = ATF3 and DDIT3 mRNA induction, healthy PBMCs; format: cell-based, human; conditions: by 8 hours
From the text: The kinetics of induction of mRNA for UPR factors ATF3 and DDIT3 in HNT-34 cells also strongly differed from that in PBMCs. […] This is also consistent with the reduced cytotoxicity observed for Compound D in normal adult lymphocytes as compared with tumor cells (data not shown).

PARP = PARP cleavage, western blot, HNT-34; format: cell-based, human; conditions: HNT-34, 10 nM Compound D
GSPT1 = GSPT1 (Homo sapiens, UniProt P15170+Q96SW2); test: GSPT1 protein reduction, western analysis, OCI-AML3; format: cell-based; set-up: reduction in GSPT1 protein level was evaluated in human normal PBMCs; endogenous in cells; host or cells: primary PBMCs from normal donors (ID 4328, 4379) and AML patients (ID 11SH, 09P6)
Method: The reduction in the level of GSPT1 protein was concentration-dependent over the range of 3 to 1000 nM in eight of the nine AML cell lines and over the range of 300 to 1000 nM in one relatively insensitive AML cell line. The time course of the reduction in GSPT1 by Compound D also was studied for up to 48 hours. The progressive degradation of GSPT1 over the course of 1 to 20 hours was evident in the presence of all concentrations of Compound D studied from 3 to 300 nM in HNT-34, HL-60, and ML-2 cells, with little GSPT1 remaining by 20 hours at 100 or 300 nM Compound D in HNT-34 or HL-60 cells (FIG. 34 and FIG. 35C). Time-dependent reduction in GSPT1 was also observed in KG-1 and OCI-AML2 cells at 3 to 1000 nM Compound D, with little GSPT1 remaining in KG-1 cells at 100 to 300 nM at 24 hours or in OCI-AML2 cells at 300 and 1000 nM at 24 hours (FIG. 35D). Loss of GSPT1 occurred more slowly in Kasumi-1, AML-193, and F36-P cells.
Compound D-mediated GSPT1 reduction at 8 hours was compared to induction of caspase 3/7 activation (apoptosis) at 12, 24, and 48 hour time points in these nine AML cell lines. […] A positive association (r^2=0.50; R=0.71; p value=4.86E-002) was observed between the level of GSPT1 reduction and apoptosis induction in the AML cell panel (FIG. 36), with >90% GSPT1 reduction correlating with induction of apoptosis.

OCI-AML2 cells = test: Anti-proliferation 72-hour CTG assay, OCI-AML2; format: cell-based; conditions: Homo sapiens; OCI-AML2, 72-hour CTG assay; read-out: IC50 of the anti-proliferative effect
Method: as §1

Chain of GSPT1 (P15170 1-637 isoform P15170-3): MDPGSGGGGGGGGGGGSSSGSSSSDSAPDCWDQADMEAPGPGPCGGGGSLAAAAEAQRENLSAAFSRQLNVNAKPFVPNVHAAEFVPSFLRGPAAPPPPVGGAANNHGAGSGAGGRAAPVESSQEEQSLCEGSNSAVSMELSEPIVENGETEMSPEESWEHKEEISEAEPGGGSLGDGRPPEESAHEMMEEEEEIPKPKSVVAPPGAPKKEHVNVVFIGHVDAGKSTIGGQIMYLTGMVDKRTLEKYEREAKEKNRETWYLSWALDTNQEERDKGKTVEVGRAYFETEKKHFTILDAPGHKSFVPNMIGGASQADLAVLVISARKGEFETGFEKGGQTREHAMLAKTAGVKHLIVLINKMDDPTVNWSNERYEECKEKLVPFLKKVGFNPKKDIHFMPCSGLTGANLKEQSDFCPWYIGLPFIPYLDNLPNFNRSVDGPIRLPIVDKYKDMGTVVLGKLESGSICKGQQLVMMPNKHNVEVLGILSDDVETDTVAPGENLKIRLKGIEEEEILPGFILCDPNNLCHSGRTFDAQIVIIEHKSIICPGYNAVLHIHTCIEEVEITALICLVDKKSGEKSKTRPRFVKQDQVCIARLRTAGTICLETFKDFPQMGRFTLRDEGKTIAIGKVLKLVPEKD
Chain of GSPT1 (Q96SW2 whole entry): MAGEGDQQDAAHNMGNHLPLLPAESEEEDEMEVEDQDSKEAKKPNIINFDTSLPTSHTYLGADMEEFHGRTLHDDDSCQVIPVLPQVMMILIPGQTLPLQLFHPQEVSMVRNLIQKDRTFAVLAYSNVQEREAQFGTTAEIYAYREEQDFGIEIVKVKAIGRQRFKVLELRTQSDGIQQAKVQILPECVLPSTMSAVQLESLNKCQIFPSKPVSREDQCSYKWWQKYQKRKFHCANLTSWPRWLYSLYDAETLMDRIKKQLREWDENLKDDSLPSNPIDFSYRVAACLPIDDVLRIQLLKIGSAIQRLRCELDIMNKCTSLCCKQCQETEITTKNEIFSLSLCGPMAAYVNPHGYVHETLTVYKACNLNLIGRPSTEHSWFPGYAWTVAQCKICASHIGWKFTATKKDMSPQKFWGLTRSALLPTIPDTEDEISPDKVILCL
Chain of GSPT1 (Q16531 whole entry partner): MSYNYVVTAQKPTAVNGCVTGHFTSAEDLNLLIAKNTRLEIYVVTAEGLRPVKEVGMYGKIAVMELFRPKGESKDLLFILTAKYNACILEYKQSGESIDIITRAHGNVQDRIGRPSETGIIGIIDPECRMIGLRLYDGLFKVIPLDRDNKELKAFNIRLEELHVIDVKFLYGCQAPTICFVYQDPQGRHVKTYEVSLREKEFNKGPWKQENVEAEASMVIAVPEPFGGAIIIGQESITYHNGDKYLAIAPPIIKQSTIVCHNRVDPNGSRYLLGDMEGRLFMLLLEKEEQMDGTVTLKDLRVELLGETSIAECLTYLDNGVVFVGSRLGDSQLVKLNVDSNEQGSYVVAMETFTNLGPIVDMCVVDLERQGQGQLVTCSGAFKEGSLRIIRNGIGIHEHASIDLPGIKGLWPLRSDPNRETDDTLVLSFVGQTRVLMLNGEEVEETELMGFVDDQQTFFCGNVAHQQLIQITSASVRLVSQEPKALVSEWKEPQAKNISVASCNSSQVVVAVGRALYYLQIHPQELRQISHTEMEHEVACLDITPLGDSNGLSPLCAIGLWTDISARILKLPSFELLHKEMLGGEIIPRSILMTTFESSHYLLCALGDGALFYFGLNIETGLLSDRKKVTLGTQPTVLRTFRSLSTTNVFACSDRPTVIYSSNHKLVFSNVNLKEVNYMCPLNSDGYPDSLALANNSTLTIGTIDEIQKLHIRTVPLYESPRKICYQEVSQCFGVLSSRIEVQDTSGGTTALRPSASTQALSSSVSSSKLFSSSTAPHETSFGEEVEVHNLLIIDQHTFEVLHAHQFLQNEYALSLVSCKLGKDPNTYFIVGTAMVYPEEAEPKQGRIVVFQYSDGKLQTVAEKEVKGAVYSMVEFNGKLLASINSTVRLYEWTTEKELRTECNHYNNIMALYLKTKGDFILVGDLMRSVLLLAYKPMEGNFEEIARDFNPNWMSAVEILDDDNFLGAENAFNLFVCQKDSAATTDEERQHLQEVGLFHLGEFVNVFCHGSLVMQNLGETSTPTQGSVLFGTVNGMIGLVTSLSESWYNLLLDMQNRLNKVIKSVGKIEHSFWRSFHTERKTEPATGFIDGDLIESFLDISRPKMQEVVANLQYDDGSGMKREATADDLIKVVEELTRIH

**Q.** How did the “Average Percent Increase in Apoptosis at 123 nM Compound D, Apoptosis (12 hr)” value (shortened to “Average Percent Increase in Apoptosis … (12 hr)”) (HNT-34 cells; HNT-34, 123 nM, 12 hr) turn out when `O=C1CCC(N2Cc3cc(CNC(=O)C(F)(F)c4ccc(Cl)cc4)ccc3C2=O)C(=O)N1` (stereo not shown) [Compound D, 2-(4-chlorophenyl)-N-((2-(2,6-dioxopiperidin-3-yl)-1-oxoisoindolin-5-yl)methyl)-2,2-difluoroacetamide] was run?
**A.** 3%

**Q.** What about the “Average Percent Increase in Apoptosis at 123 nM Compound D, Apoptosis (24 hr)” value (“Average Percent Increase in Apoptosis … (24 hr)” for short) (HNT-34 cells; HNT-34, 123 nM, 24 hr) of the same compound?
**A.** 12%

**Q.** And the “Average Percent Increase in Apoptosis at 123 nM Compound D, Apoptosis (48 hr)” value (“Average Percent Increase in Apoptosis … (48 hr)” below) (HNT-34 cells; HNT-34, 123 nM, 48 hr)?
**A.** 32%

**Q.** And the EC50 (HNT-34 cells; HNT-34, 24 hr)?
**A.** 7 nM

**Q.** What about the EC50 (HNT-34 cells; HNT-34, 48 hr) of the same compound?
**A.** 4 nM

**Q.** What about the EC50 (HNT-34 cells; HNT-34, 96 hr) of the same compound?
**A.** 2 nM

**Q.** What about the “induction of proteins in the UPR pathway or cleavage of PARP” value [1] of the same compound?
**A.** did not occur

**Q.** And the “Average Percent Increase in Apoptosis … (12 hr)” value (OCI-AML3 cells [2]; 12 hr)?
**A.** 0%

**Q.** And the “Average Percent Increase in Apoptosis … (24 hr)” value (OCI-AML3 cells [2]; 24 hr)?
**A.** 1%

**Q.** And the “Average Percent Increase in Apoptosis … (48 hr)” value (OCI-AML3 cells [2]; 48 hr)?
**A.** 2%

**Q.** What about the EC50 (KG-1 cells; KG-1, 12 hr) of the same compound?
**A.** 53 nM

**Q.** And the EC50 (KG-1 cells; KG-1, 48 hr)?
**A.** 39 nM

**Q.** And the EC50 (KG-1 cells; KG-1, 72 hr)?
**A.** 26 nM

**Q.** And the EC50 (KG-1 cells; KG-1, 96 hr)?
**A.** 25 nM

**Q.** What about the “average percent increase in apoptosis” value (KG-1 cells; KG-1, 41 nM, 24 hour time point) of the same compound?
**A.** 11%

**Q.** What about the “Average Percent Increase in Apoptosis … (12 hr)” value (KG-1 cells; KG-1, 123 nM, 12 hr) of the same compound?
**A.** 2%

**Q.** What about the “Average Percent Increase in Apoptosis … (24 hr)” value (KG-1 cells; KG-1, 123 nM, 24 hr) of the same compound?
**A.** 16%

**Q.** What about the “Average Percent Increase in Apoptosis … (48 hr)” value (KG-1 cells; KG-1, 123 nM, 48 hr) of the same compound?
**A.** 42%

**Q.** What about the “cell proliferation (CellTiter-Glo)” value (OCI-AML3 cells [3]; AML3 parental or control shRNA cells, 0.0001 μM to 1 μM, two days) of the same compound?
**A.** exhibited anti-proliferative effect, particularly at high concentration

**Q.** And the IC50 (OCI-AML3 cells [3]; Homo sapiens, OCI-AML-3, OCI-AML3, 72-hour CTG assay, read-out: IC50 of the anti-proliferative effect)?
**A.** 3400 nM

**Q.** What about the IC50 (NB-4 cells) of the same compound?
**A.** 17 nM

**Q.** And the “induction of ATF3 or DDIT3 mRNA” value (ATF3 and DDIT3 mRNA)?
**A.** no induction

**Q.** And the “time of PARP cleavage” value (PARP)?
**A.** 24 h

**Q.** And the “Percent Reduction at 100 nM Compound D GSPTI (8 hr)” value (GSPT1; OCI-AML3, 100 nM, 8 hr, visual interpolation between 3 and 300 nM)?
**A.** ~30^b %

**Q.** What about the GSPT1 reduction (GSPT1; OCI-AML3, 300 nM Compound D, 8 hours) of the same compound?
**A.** 37%

**Q.** What about the GSPT1 protein level (GSPT1; OCI-AML3, 4-hour exposure) of the same compound?
**A.** barely changed

**Q.** What about the “loss of GSPT1” value (GSPT1; OCI-AML3, 300 and 1000 nM, 24 and 48 hours) of the same compound?
**A.** slight loss

**Q.** What about the IC50 (OCI-AML2 cells) of the same compound?
**A.** 57 nM

Reference: US12474342B2, “Methods for treating cancer and the use of biomarkers as a predictor of clinical sensitivity to therapies” (CELGENE CORPORATION, priority 2016, dated 2025)
